Each compound was assayed against T1, recombinant human mPGES-1 (Homo sapiens, UniProt O14684) (assay: mPGES-1 inhibition, HTRF detection of PGE2).
T1 construct: made in house; host or cells: Rosetta E. coli (microsomal/membrane fraction)
T1 sequence (O14684 1-152): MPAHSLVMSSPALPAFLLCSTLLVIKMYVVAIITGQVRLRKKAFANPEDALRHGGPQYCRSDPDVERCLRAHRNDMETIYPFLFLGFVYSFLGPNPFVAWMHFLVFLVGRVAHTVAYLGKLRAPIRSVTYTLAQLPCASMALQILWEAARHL
Format: biochemical
Description: Microsomes from Rosetta E. coli bacteria expressing recombinant human mPGES-1 is dissolved in 0.1 M KPi pH 7.4 buffer containing 2.5 mM GSH. 50 μl of the enzyme is subsequently dispensed in a 384-well plate. 0.5 μl of the inhibitor dissolved in DMSO at is thereafter added to each well and incubated for 25 minutes at room temperature. Subsequently, 2 μl of PGH2 dissolved in an appropriate solvent is added to each well and after one minute the acidified stop solution containing FeCl2 is added. 4 μl of the total volume is transferred to a separate plate and diluted 750-fold in two separate steps before HTRF detection of PGE2.
The HTRf detection is performed by the use of a commercially available kit from CisBio essentially according to the manufacturer's protocol. Briefly, 10 μl of the diluted sample is transferred to a white 384-well plate. 5 μl of d2 and 5 μl Eu3+-Cryptate labeled anti-PGE2 is added to each well containing samples by the use of a Multidrop. The plate is covered with a plastic self-adhesive film, centrifuged at 1200 rpm for 1 minute and subsequently stored at +4° C. over night.
After over night incubation the fluorescence is measured by the use of an appropriate microplate reader. The fluorescence of europium cryptate, and d2 are measured using the following excitation and emission wavelength, europium cryptate: λmax^ex=307 nm, λmax^em=620 nm and d2: λmax^ex=620 nm, λmax^em=665 nm), respectively. The extent of the specific FRET is measured as a ratio of the emission intensity at 665 nm vs. that at 620 nm. A standard curve using synthetic PGE2 is used to quantify the amount of PGE2 in unknown samples.

inhibition at 10 µM [%]	inhibition at 1 µM [%]	SMILES
100		O=C(Nc1ccc(Br)cc1)c1cc2nc(Nc3c(Cl)cncc3Cl)[nH]c2nc1OCC(F)(F)F [Example 858, 2-(3,5-Dichloro-pyridin-4-ylamino)-5-(2,2,2-trifluoro-ethoxy)-N-(4-bromo-phenyl)-3H-imidazo[4,5-b]pyridine-6-carboxamide]
94		Cn1c(Nc2c(Cl)cncc2Cl)nc2cc(C(=O)N[C@H]3CC[C@H](C(F)(F)F)CC3)c(OCC(F)F)nc21 [Example 838, 2-(3,5-Dichloro-pyridin-4-ylamino)-5-(2,2-difluoro-ethoxy)-N-(trans-4-trifluoromethyl-cyclohexyl)-3-methyl-3H-imidazo[4,5-b]pyridine-6-carboxamide]
98		O=C(NCc1ccccc1C(F)(F)F)c1cc2nc(Nc3c(Cl)cncc3Cl)[nH]c2nc1OCC(F)F [Example 805, 2-(3,5-Dichloro-pyridin-4-ylamino)-5-(2,2-difluoro-ethoxy)-N-((2-trifluoromethyl-phenyl)-methyl)-3H-imidazo[4,5-b]pyridine-6-carboxamide]
98		Cn1c(Nc2c(Cl)ccc(Cl)c2F)nc2cc(C(=O)N[C@H]3CC[C@H](C(F)(F)F)CC3)c(OCC(F)F)nc21 [Example 787, 2-(3,6-Dichloro-2-fluoro-phenylamino)-5-(2,2-difluoro-ethoxy)-N-(trans-4-trifluoromethyl-cyclohexyl)-3-methyl-3H-imidazo[4,5-b]pyridine-6-carboxamide]
	95	O=C(Nc1ccc(Br)cc1)c1cc2nc(Nc3ccccc3C(F)(F)F)[nH]c2nc1OCC(F)F [Example 775, N-(4-Bromo-phenyl)-2-(2-trifluoromethyl-phenylamino)-5-(2,2-difluoroethoxy)-3H-imidazo[4,5-b]pyridine-6-carboxamide]

More lines, now with the values behind:

SMILES	inhibition at 10 µM [%]	inhibition at 1 µM [%]
CCCCC[C@@H](C)NC(=O)c1cnc2c(c1)nc(Nc1c(Cl)cccc1Cl)n2C [Example 449, (R)-2-(2,6-Dichlorophenylamino)-N-(hept-2-yl)-3-methyl-3H-imidazo[4,5-b]pyridine-6-carboxamide]	98	
Cn1c(Nc2c(Cl)cccc2Cl)nc2cc(C(=O)NC3CCCC(C)(C)C3)cnc21 (centres unmarked) [Example 454, 2-(2,6-Dichlorophenylamino)-N-(3,3-dimethylcyclohexyl)-3-methyl-3H-imidazo[4,5-b]pyridine-6-carboxamide]	99	
Cn1c(Nc2c(Cl)cncc2Cl)nc2cc(C(=O)N[C@H]3CC[C@H](C(F)(F)F)CC3)c(OC3CCOC3)nc21 (stereo partly drawn) [Example 846, 2-(3,5-Dichloro-pyridin-4-ylamino)-5-(tetrahydrofuran-3-yl-oxy)-N-(trans-4-trifluoromethyl-cyclohexyl)-3-methyl-3H-imidazo[4,5-b]pyridine-6-carboxamide]	100	
O=C(NCC(F)(F)C(F)(F)C(F)(F)C(F)(F)F)c1cc2nc(Nc3c(Cl)cncc3Cl)[nH]c2nc1OCC(F)F [Example 807, 2-(3,5-Dichloro-pyridin-4-ylamino)-5-(2,2-difluoro-ethoxy)-N-(2,2,3,3,4,4,5,5,5-nonafluoro-pentyl)-3H-imidazo[4,5-b]pyridine-6-carboxamide]	90	
CC#CCn1c(Nc2c(Cl)cccc2Cl)nc2cc(C(=O)NC3CCCCC3)cnc21 [Example 523, 3-(But-2-ynyl)-N-cyclohexyl-2-(2,6-dichlorophenylamino)-3H-imidazo[4,5-b]pyridine-6-carboxamide]	96	
Cn1c(Nc2c(Cl)cc(F)cc2Cl)nc2cc(C(=O)NCC(F)(F)C(F)(F)C(F)(F)C(F)(F)F)c(OCC(F)(F)F)nc21 [Example 873, 2-(2,6-Dichloro-4-fluoro-phenylamino)-5-(2,2,2-trifluoro-ethoxy)-N-(2,2,3,3,4,4,5,5,5-nonafluoropentyl)-3-methyl-3H-imidazo[4,5-b]pyridine-6-carboxamide]	100	

Reference: patent US8703796B2, “3H-imidazo [4, 5-B] pyridine-6-carboxamides as anti-inflammatory agents” (Boehringer Ingelheim International GmbH, priority 2008, dated 2014)
